{"source": "paper PMC12154426", "about": "“TPP-Based Nanovesicles Kill MDR Neuroblastoma Cells and Induce Moderate ROS Increase, While Exerting Low Toxicity Towards Primary Cell Cultures: An In Vitro Study” (International Journal of Molecular Sciences, 2025)", "key": {"[1]": {"test_system": "HTLA 230", "assay": "DAPI and Annexin-V/PI staining (necrosis/apoptosis), HTLA 230", "type": "cell-based, human", "settings": "0.5 µM, 24 h", "source_text": "(§1) Although it has been reported that diverse therapeutic approaches to counteract cancer, including chemotherapeutic drugs, gamma irradiation, suicide genes, or immunotherapy, are mediated through the induction of apoptosis, also necrosis, as well as other forms of cell death, that are not classified so far, may be triggered by anticancer therapies. Here, to evaluate if BPPB induced apoptosis or necrosis, both NB cell populations were labelled with Annexin-V-FITC/propidium iodide (PI) and analysed by confocal fluorescence microscopy, as reported in the literature. This is a standard procedure to monitor the progression of apoptosis and the possible presence of necrosis. […]\n(§2) After the treatment, cells were washed with PBS and stained with the fluorescent DNA dye DAPI (1 µg/mL) for 30 min. After additional washing, the images were immediately acquired in the fluorescence mode using a Nikon AX R confocal microscope equipped with a PLAN APO 20× (Nikon Europe, B.V., Amstelveen, The Netherlands).\n(§3) Apoptotic and necrotic cells were analysed, as described in Marengo et al.. […] After staining, the images were immediately acquired in fluorescence mode using a Nikon AX R confocal microscope equipped with a PLAN APO 20× (Nikon Europe, B.V., Amstelveen, The Netherlands)."}, "[2]": {"test_system": "HTLA ER", "assay": "DAPI and Annexin-V/PI staining (necrosis/apoptosis), HTLA ER", "type": "cell-based, human", "settings": "24 h", "source_text": "as §1, §2, §3"}, "[3]": {"test_system": "cortical neurons", "assay": "MTT cytotoxicity assay on cortical neuron primary cell cultures", "type": "cell-based, Sprague Dawley rat", "settings": "for IC50: 0.12–11.73 µM", "source_text": "Similarly to the assessment of haemolytic toxicity, the evaluation of cytotoxicity towards mammalian cells is another pivotal step to afford in the early stage of drug development, before undertaking other costly and time-consuming in vivo experiments. […] The cytotoxicity of quaternary phosphonium salts (QPSs) depends mainly on their physicochemical characteristics, including the number of carbon atoms of alkyl chains, the presence of aromatic ring(s) on which the P^+ cationic charge can delocalize, the type of counter anions, the possible colloidal properties, and the probable capability to form nano aggregates. The specific types of cells exposed to QPSs can further influence their cytotoxicity. In this regard, the constituents of membranes of cancer cells are different from those of mammalian cells. This makes them more susceptible to the disruptive action of cationic compounds, thus making QPSs’ possible cytotoxicity towards tumour cells higher than towards normal ones. Anyway, a certain cytotoxicity could manifest also in normal cells and quantifying it is mandatory. Based on these considerations, although NB is a neuroendocrine tumour which derives from neural crest cells, we investigated the BPPB toxic effects on primary cell cultures, namely spinal cord astrocytes and cortical neurons. Astrocyte primary cultures have emerged as an important tool for understanding the responses of normal cells under both physiological and pathological conditions. On the other hand, primary neuronal cell cultures are best suited for drug discovery and drug development. Primary cell cultures freshly prepared from animals reproduce physiological conditions astonishingly like the in vivo situation. As for our knowledge, it is the first time that the cytotoxicity of a bola amphiphilic compound is assessed on primary cultures of astrocytes and neurons. More generically, the existent studies on the cytotoxicity of synthetic QPSs, or of a generic exogenous synthetic cationic organic compound or polymer on astrocytes and neurons primary cell cultures, are limited. As examples, upon a rapid survey, we have found a study on the mechanism by which amine-modified cationic polystyrene nanoparticles induced cell death in a human brain astrocytoma cell line, but not in primary astrocytes. A study on the mechanism by which endogenous eosinophil cationic protein/RNase 3 induced cell death in primary astrocytes was found, but exogenous synthetic cationic compounds were not considered. Concerning primary neurons, the cytotoxicity of both a commercial (LA2000) and a newly prepared cationic lipid (Arg (TFA^−)) vs. primary neurons was assessed by Aoshima et al.. The cytotoxicity of a library of 80 compounds, among which only 2/3 molecules were cationic salts, was evaluated in human-induced pluripotent stem cell (iPSC)-derived neural stem cells, neurons, and astrocytes by Pei et al.. Vidal et al. assessed the neurotoxicity of a cationic fourth generation (G4) amine dendrimer (G4-NH2) towards primary neuron cell cultures. […] Cell viability in neurons and astrocytes, treated with increasing concentrations of BPPB for 24, 48, and 72 h, was assessed using the MTT essay, which is a method endowed with simplicity, convenience, quantitative and high throughput, as well as reproducibility. MTT is a well-established method for assessing cell viability, and its reliability is supported by standardized protocols in many areas of research.\nCortical neurons were prepared from the cortex of E16-E17 Sprague Dawley rat embryos, as previously described. The cortex was removed under binocular dissection (Nikon SMZ-2T, Tokyo, Japan) in a physiologic medium composed of 120 mM NaCl, 5 mM KCl, 25 mM HEPES, and 9 mM glucose (HIB, pH 7.4) at 4 °C. […]"}, "[4]": {"test_system": "RBCs", "assay": "Haemolytic toxicity on red blood cells", "type": "cell-based", "settings": "for SI 24 h: 24 h exposure of NB cells; for SI 48 h: 48 h exposure of NB cells; for SI 72 h: 72 h exposure of NB cells", "description": "The IC50 values reported in Table 3 were determined after 24, 48, and 72 h of exposure of NB cells and primary cortical astrocytes and neurons to BPPB, and the HC50 determined on RBCs after the time of experiments, as for protocol, was used to calculate the SIs according to Equation (1), as reported in Table 4."}}, "data": [{"smiles": "c1ccc([P+](CCCCCCCCCCCC[P+](c2ccccc2)(c2ccccc2)c2ccccc2)(c2ccccc2)c2ccccc2)cc1", "note": "[BPPB, 1,1-(1,12-dodecanediyl)-bis-[1,1,1]-triphenyl phosphonium di-bromide]", "values": [{"measurement": "apoptosis (Annexin V-FITC / PI labelling)", "setting": "[1]", "result": "marked apoptosis"}, {"measurement": "necrosis (DAPI labelling)", "setting": "[1]", "result": "seemed to induce the necrosis"}, {"measurement": "apoptosis (Annexin V-FITC / PI labelling)", "setting": "[2]; 1 µM", "result": "marked apoptosis"}, {"measurement": "necrosis (DAPI labelling)", "setting": "[2]; 1.0 µM", "result": "did not induce the necrosis"}, {"measurement": "cell viability", "setting": "[3]; 0.12 µM, 24 h", "result": 89.49, "unit": "%"}, {"measurement": "cell viability", "setting": "[3]; 0.12 µM, 48 h", "result": 96.77, "unit": "%"}, {"measurement": "cell viability", "setting": "[3]; 0.12 µM, 72 h", "result": 95.90, "unit": "%"}, {"measurement": "cell viability", "setting": "[3]; 0.29 µM, 72 h", "result": 71.80, "unit": "%"}, {"measurement": "cell viability", "setting": "[3]; 1.80 µM, 48 h", "result": 57.15, "unit": "%"}, {"measurement": "cell viability", "setting": "[3]; 11.73 µM (10.0 µg/mL), 24 h", "result": 14.80, "unit": "%"}, {"measurement": "cell viability", "setting": "[3]; 11.73 µM (10.0 µg/mL), 48 h", "result": 20.03, "unit": "%"}, {"measurement": "cell viability", "setting": "[3]; 11.73 µM (10.0 µg/mL), 72 h", "result": 10.63, "unit": "%"}, {"measurement": "IC50", "setting": "[3]; 24 h exposure", "result": "1.56 ± 0.278", "unit": "µM"}, {"measurement": "IC50", "setting": "[3]; 48 h exposure", "result": "2.21 ± 0.337", "unit": "µM"}, {"measurement": "IC50", "setting": "[3]; 72 h exposure", "result": "0.763 ± 0.127", "unit": "µM"}, {"measurement": "SI 24 h", "setting": "[3]; Cortical neurons vs. HTLA 230, 24 h", "result": 1.69}, {"measurement": "SI 48 h", "setting": "[3]; Cortical neurons vs. HTLA 230, 48 h", "result": 4.78}, {"measurement": "SI 72 h", "setting": "[3]; Cortical neurons vs. HTLA 230, 72 h", "result": 1.96}, {"measurement": "SI 24 h", "setting": "[3]; Cortical neurons vs. HTLA ER, 24 h", "result": 1.26}, {"measurement": "SI 48 h", "setting": "[3]; Cortical neurons vs. HTLA ER, 48 h", "result": 1.63}, {"measurement": "SI 72 h", "setting": "[3]; Cortical neurons vs. HTLA ER, 72 h", "result": 0.64}, {"measurement": "SI values with respect to primary cortical neurons", "setting": "[3]; HTLA 230 and HTLA ER, all exposure timings except HTLA ER 72 h", "result": "1.26–4.78"}, {"measurement": "SI 24 h", "setting": "[4]; RBCs vs. HTLA 230", "result": 16.81}, {"measurement": "SI 48 h", "setting": "[4]; RBCs vs. HTLA 230", "result": 33.66}, {"measurement": "SI 72 h", "setting": "[4]; RBCs vs. HTLA 230", "result": 39.98}, {"measurement": "SI 24 h", "setting": "[4]; RBCs vs. HTLA ER", "result": 12.56}, {"measurement": "SI 48 h", "setting": "[4]; RBCs vs. HTLA ER", "result": 11.49}, {"measurement": "SI 72 h", "setting": "[4]; RBCs vs. HTLA ER", "result": 12.98}]}]}
